Assay results reported in US20250195536A1, “BICYCLOOCTANE KRAS INHIBITORS” (Incyte Corporation, priority 2023, published 2025).

Columns and labels:
[1] = Caco2 assay (permeability, Papp A-B); type: in vitro ADME; conditions: human, Caco-2, absorptive direction (A-B), 50 μM test compound, 4% BSA in receiver
Outline: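 Caco-2 monolayers, 22-25 days on Transwells, TEER 300 Ω·cm^2, dosed apically with 50 μM compound in HBSS; basolateral HBSS with 4% BSA. 120 min at 37 °C, samples quantified by LCMS; Papp (A-B) from receiver-side cumulative flux slope, donor volume, surface area and initial donor amount.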

KRAS G12D = KRAS G12D (Homo sapiens, UniProt P01116, G12D); assay: GDP-GTP exchange assay (KRAS G12D); type: biochemical; conditions: bodipy-GDP/GppNHp exchange with SOS1; 4 h pre-incubation, 2 h reaction;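 note: one dagger IC50 up to 100 nM and two daggers above 100 nM up to 1 μM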
Chain of KRAS G12D (P01116 1-188 isoform P01116-2 G12D): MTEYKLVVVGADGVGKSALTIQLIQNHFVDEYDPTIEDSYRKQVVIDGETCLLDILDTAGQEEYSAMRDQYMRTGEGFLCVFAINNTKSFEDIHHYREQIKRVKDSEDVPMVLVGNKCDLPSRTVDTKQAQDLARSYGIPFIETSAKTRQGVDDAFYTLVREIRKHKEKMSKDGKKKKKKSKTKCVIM
Outline: (§1)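 Bodipy-GDP-loaded KRAS (2.5 nM final) was pre-incubated 4 h at r.t. with inhibitor in Hepes pH 7.5 buffer with MgCl2, then exchange started with GppNHp (500 μM) and SOS1 (150 nM) final. Fluorescence (ex 485/em 520 nm) read after 2 h for G12D, 3 h for G12V; IC50 from four-parameter logistic fit.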

KRAS G12V = KRAS G12V (Homo sapiens, UniProt P01116, G12V); assay: GDP-GTP exchange assay (KRAS G12V); type: biochemical; conditions: bodipy-GDP/GppNHp exchange with SOS1; 3 h incubation after GppNHp-SOS1;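 note: one dagger IC50 up to 100 nM and two daggers above 100 nM up to 1 μM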
Chain of KRAS G12V (P01116 1-188 isoform P01116-2 G12V): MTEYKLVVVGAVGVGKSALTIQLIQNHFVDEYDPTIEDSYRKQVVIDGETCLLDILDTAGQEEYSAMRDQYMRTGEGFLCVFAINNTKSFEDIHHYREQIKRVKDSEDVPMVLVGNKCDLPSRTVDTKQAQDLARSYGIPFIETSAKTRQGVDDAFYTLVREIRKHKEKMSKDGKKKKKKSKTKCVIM
Outline: as §1

Row | SMILES | Papp A→B at 120 min, 50 μM [1] | G12D_exchange (KRAS_G12D exchange assay IC50) (KRAS G12D) | G12V_exchange (KRAS_G12V exchange assay IC50) (KRAS G12V)
1 | Cc1nc2c(F)c(-c3cccc(Cl)c3Cl)c(CCC#N)cc2c2c1cc([C@H]1[C@H]3C[C@H](CN(c4cncc(C(F)(F)F)c4)C3)N1C(=O)C1CC1)n2[C@H]1[C@H]2CN[C@@H]1C2 (atropisomer, axis not shown; (Ra)) [Example 21, 3-((Ra)-1-((1R,4R,5S)-2-azabicyclo[2.1.1]hexan-5-yl)-2-((1S,5R,7R)-6-(cyclopropanecarbonyl)-3-(5-(trifluoromethyl)pyridin-3-yl)-3,6-diazabicyclo[3.2.1]octan-7-yl)-7-(2,3-dichlorophenyl)-6-fluoro-4-methyl-1H-pyrrolo[3,2-c]quinolin-8-yl)propanenitrile] | ≤ 0.5 ×10⁻⁶ cm/s | † | †
2 | Cc1nc2c(F)c(-c3cccc(Cl)c3Cl)c(CCC#N)cc2c2c1cc([C@H]1[C@H]3C[C@H](CN(c4ccc(C(F)F)nc4)C3)N1C(=O)C1CC1)n2[C@H]1[C@H]2CN[C@@H]1C2 (atropisomer, axis not shown; (Ra)) [Example 22, 3-((Ra)-1-((1R,4R,5S)-2-azabicyclo[2.1.1]hexan-5-yl)-2-((1S,5R,7R)-6-(cyclopropanecarbonyl)-3-(6-(difluoromethyl)pyridin-3-yl)-3,6-diazabicyclo[3.2.1]octan-7-yl)-7-(2,3-dichlorophenyl)-6-fluoro-4-methyl-1H-pyrrolo[3,2-c]quinolin-8-yl)propanenitrile] | ≤ 0.5 ×10⁻⁶ cm/s | † | †
3 | Cc1nc2c(F)c(-c3cccc(Cl)c3Cl)c(CCC#N)cc2c2c1cc([C@H]1[C@H]3C[C@H](CN(c4ccc(F)cc4)C3)N1C(=O)C1CC1)n2[C@H]1[C@H]2CN[C@@H]1C2 (atropisomer, axis not shown; (Ra)) [Example 23, 3-((Ra)-1-((1R,4R,5S)-2-azabicyclo[2.1.1]hexan-5-yl)-2-((1S,5R,7R)-6-(cyclopropanecarbonyl)-3-(4-fluorophenyl)-3,6-diazabicyclo[3.2.1]octan-7-yl)-7-(2,3-dichlorophenyl)-6-fluoro-4-methyl-1H-pyrrolo[3,2-c]quinolin-8-yl)propanenitrile] | ≤ 0.5 ×10⁻⁶ cm/s | † | †
4 | COc1ccc(N2C[C@@H]3C[C@H](C2)N(C(=O)C2CC2)[C@H]3c2cc3c(C)nc4c(F)c(-c5cccc(Cl)c5Cl)c(CCC#N)cc4c3n2[C@H]2[C@H]3CN[C@@H]2C3)cn1 (atropisomer, axis not shown; (Ra)) [Example 24, 3-((Ra)-1-((1R,4R,5S)-2-azabicyclo[2.1.1]hexan-5-yl)-2-((1S,5R,7R)-6-(cyclopropanecarbonyl)-3-(6-methoxypyridin-3-yl)-3,6-diazabicyclo[3.2.1]octan-7-yl)-7-(2,3-dichlorophenyl)-6-fluoro-4-methyl-1H-pyrrolo[3,2-c]quinolin-8-yl)propanenitrile] | ≤ 0.5 ×10⁻⁶ cm/s | †† | †
5 | Cc1nc2c(F)c(-c3cccc(Cl)c3Cl)c(CCC#N)cc2c2c1cc([C@H]1[C@H]3C[C@H](CN(c4ccc(OC(F)F)cc4)C3)N1C(=O)C1CC1)n2[C@H]1[C@H]2CN[C@@H]1C2 (atropisomer, axis not shown; (Ra)) [Example 25, 3-((Ra)-1-((1R,4R,5S)-2-azabicyclo[2.1.1]hexan-5-yl)-2-((1S,5R,7R)-6-(cyclopropanecarbonyl)-3-(4-(difluoromethoxy)phenyl)-3,6-diazabicyclo[3.2.1]octan-7-yl)-7-(2,3-dichlorophenyl)-6-fluoro-4-methyl-1H-pyrrolo[3,2-c]quinolin-8-yl)propanenitrile] | ≤ 0.5 ×10⁻⁶ cm/s | †† | †
6 | Cc1nc2c(F)c(-c3cccc(Cl)c3Cl)c(CCC#N)cc2c2c1cc([C@H]1[C@H]3C[C@H](CN(c4cccc(OC(F)F)c4)C3)N1C(=O)C1CC1)n2[C@H]1[C@H]2CN[C@@H]1C2 (atropisomer, axis not shown; (Ra)) [Example 26, 3-((Ra)-1-((1R,4R,5S)-2-azabicyclo[2.1.1]hexan-5-yl)-2-((1S,5R,7R)-6-(cyclopropanecarbonyl)-3-(3-(difluoromethoxy)phenyl)-3,6-diazabicyclo[3.2.1]octan-7-yl)-7-(2,3-dichlorophenyl)-6-fluoro-4-methyl-1H-pyrrolo[3,2-c]quinolin-8-yl)propanenitrile] | ≤ 0.5 ×10⁻⁶ cm/s | †† | †
7 | Cc1nc2c(F)c(-c3cccc(Cl)c3Cl)c(CCC#N)cc2c2c1cc([C@H]1[C@H]3C[C@H](CN(c4cnn(C(F)(F)F)c4)C3)N1C(=O)C1CC1)n2[C@H]1[C@H]2CN[C@@H]1C2 (atropisomer, axis not shown; (Ra)) [Example 27, 3-((Ra)-1-((1R,4R,5S)-2-azabicyclo[2.1.1]hexan-5-yl)-2-((1S,5R,7R)-6-(cyclopropanecarbonyl)-3-(1-(trifluoromethyl)-1H-pyrazol-4-yl)-3,6-diazabicyclo[3.2.1]octan-7-yl)-7-(2,3-dichlorophenyl)-6-fluoro-4-methyl-1H-pyrrolo[3,2-c]quinolin-8-yl)propanenitrile] | ≤ 0.5 ×10⁻⁶ cm/s | † | †
8 | Cc1nc2c(F)c(-c3cccc(Cl)c3Cl)c(CCC#N)cc2c2c1cc([C@H]1[C@H]3C[C@H](CN(c4ccc(OC(F)(F)F)cc4F)C3)N1C(=O)C1CC1)n2[C@H]1[C@H]2CN[C@@H]1C2 (atropisomer, axis not shown; (Ra)) [Example 28, 3-((Ra)-1-((1R,4R,5S)-2-azabicyclo[2.1.1]hexan-5-yl)-2-((1S,5R,7R)-6-(cyclopropanecarbonyl)-3-(2-fluoro-4-(trifluoromethoxy)phenyl)-3,6-diazabicyclo[3.2.1]octan-7-yl)-7-(2,3-dichlorophenyl)-6-fluoro-4-methyl-1H-pyrrolo[3,2-c]quinolin-8-yl)propanenitrile] | ≤ 0.5 ×10⁻⁶ cm/s | †† | †
9 | Cc1nc2c(F)c(-c3cccc(Cl)c3Cl)c(CCC#N)cc2c2c1cc([C@H]1[C@H]3C[C@H](CN(c4cn(C)nc4C(F)(F)F)C3)N1C(=O)C1CC1)n2[C@H]1[C@H]2CN[C@@H]1C2 (atropisomer, axis not shown; (Ra)) [Example 29, 3-((Ra)-1-((1R,4R,5S)-2-azabicyclo[2.1.1]hexan-5-yl)-2-((1S,5R,7R)-6-(cyclopropanecarbonyl)-3-(1-methyl-3-(trifluoromethyl)-1H-pyrazol-4-yl)-3,6-diazabicyclo[3.2.1]octan-7-yl)-7-(2,3-dichlorophenyl)-6-fluoro-4-methyl-1H-pyrrolo[3,2-c]quinolin-8-yl)propanenitrile] | ≤ 0.5 ×10⁻⁶ cm/s | † | †
10 | Cc1ncnc(N2C[C@@H]3C[C@H](C2)N(C(=O)C2CC2)[C@H]3c2cc3c(C)nc4c(F)c(-c5cccc(Cl)c5Cl)c(CCC#N)cc4c3n2[C@H]2[C@H]3CN[C@@H]2C3)c1F (atropisomer, axis not shown; (Ra)) [Example 31, 3-((Ra)-1-((1R,4R,5S)-2-Azabicyclo[2.1.1]hexan-5-yl)-2-((1 S,5R,7R)-6-(cyclopropanecarbonyl)-3-(5-fluoro-6-methylpyrimidin-4-yl)-3,6-diazabicyclo[3.2.1]octan-7-yl)-7-(2,3-dichlorophenyl)-6-fluoro-4-methyl-1H-pyrrolo[3,2-c]quinolin-8-yl)propanenitrile] | ≤ 0.5 ×10⁻⁶ cm/s | † | †
11 | Cc1nc2c(F)c(-c3cccc(Cl)c3Cl)c(CCC#N)cc2c2c1cc([C@H]1[C@H]3C[C@H](CN(c4ncc(C(C)C)s4)C3)N1C(=O)C1CC1)n2[C@H]1[C@H]2CN[C@@H]1C2 (atropisomer, axis not shown; (Ra)) [Example 32, 3-((Ra)-1-((1R,4R,5S)-2-Azabicyclo[2.1.1]hexan-5-yl)-2-((1 S,5R,7R)-6-(cyclopropanecarbonyl)-3-(5-isopropylthiazol-2-yl)-3,6-diazabicyclo[3.2.1]octan-7-yl)-7-(2,3-dichlorophenyl)-6-fluoro-4-methyl-1H-pyrrolo[3,2-c]quinolin-8-yl)propanenitrile] | > 1 ×10⁻⁶ cm/s | † | †
